Patent US7468432B2, “Cobalamin conjugates useful as antitumor agents” (Mayo Foundation for Medical Education and Research, priority 1999, dated 2008)

How the values were obtained:
[1] = tested on: African green monkey (Vero) cells; conditions: concentration level of 1600 μM; cited from earlier work
[2] = tested on: cells; conditions: in vitro neutron radiation of cells grown in the presence of compound; cited from earlier work
[3] = tested on: transcobalamin proteins; assay: modified unsaturated Vitamin B12 binding capacity (UBBC) assay; design: species or system human; conditions: 0.4 ml patient serum treated with 4 μL analog (10 μg per ml normal saline), 20 minutes at room temperature; blocking of Co-57 cyanocobalamin binding; 5 patients, n=10
Procedure: In vitro biological activity of the carborane cyanocobalamin analogs. To assess the in vitro binding of the carborane cyanocobalamin (Example 1, CCC) and DTPA-aminopropylcobalamin (Example 3, DAPC) analogs to the transcobalamin proteins, the unsaturated Vitamin B12 binding capacity (UBBC) assay (see D. A. Collins and H. P. C. Hogenkamp, J. Nuclear Medicine, 1997, 38, 717-723) was performed. Serum was obtained from 5 patients being evaluated for pernicious anemia at the Mayo Clinic. The patients' serum first underwent a routine clinical UBBC as previously described. To determine if the CCC and DAPC analogs would inhibit Co-57 cyanocobalamin from binding to the transcobalamin proteins, the excess serum from the 5 patients underwent modified UBBC.
Specifically, under dim light, 0.4 ml serum was treated with 4 μL (concentration 10 μg CCC per ml normal saline) of the 2 CCC analogs, carborane-d-cyano-cobalamin and carborane-b-cyanocobalamin, and DAPC. The analogs were incubated for 20 minutes at room temperature with the patient's serum. Both the clinical run and the analog treated samples were assayed for UBBC as usual.
The percent PB of the analogs to transcobalamin protein was calculated as follows (PB=100−CCCUBBC cpm/clinical UBBC cpm×100). […]

In the case of O=c1[nH]c(=O)n([C@H]2C[C@H](O)[C@@H](CO)O2)cc1B(O)O [5-dihydroloxyboryl-2′-deoxyuridine], the cytotoxicity [1] is listed as “not cytotoxic” and the “biological effect equivalent to a concentration of 10B” value [2] is listed as ~6 μg ^10B/g.

For DTPA-aminopropylcarbalamin [DAPC], the “average percent binding (PB) of the analogs to transcobalamin protein” value [3] was 98.21%.
